SMILES strings stand for the structures. pEC50: −log10 of the molar value.

Experiment [1] deals with Beta-1 adrenergic receptor (Homo sapiens) (UniProt P08588). Kind of experiment: Intrinsic activity (IA) at human Beta-1 adrenergic receptor (at 30 uM, represented by the percentage of the maximal response attained by isoproterenol). It counts as functional.
In experiment [2] the target is T1, Beta-3 adrenergic receptor (Homo sapiens, UniProt P13945). Kind of experiment: Agonist activity (EC50) was assessed by measuring cAMP levels in CHO cells expressing cloned human Beta-3 adrenergic receptor. It counts as functional, cell-based. A general note: Cyclic AMP is a second messenger, typically raised through Gs and lowered through Gi signalling.
Target sequence in this assay (P13945 whole entry): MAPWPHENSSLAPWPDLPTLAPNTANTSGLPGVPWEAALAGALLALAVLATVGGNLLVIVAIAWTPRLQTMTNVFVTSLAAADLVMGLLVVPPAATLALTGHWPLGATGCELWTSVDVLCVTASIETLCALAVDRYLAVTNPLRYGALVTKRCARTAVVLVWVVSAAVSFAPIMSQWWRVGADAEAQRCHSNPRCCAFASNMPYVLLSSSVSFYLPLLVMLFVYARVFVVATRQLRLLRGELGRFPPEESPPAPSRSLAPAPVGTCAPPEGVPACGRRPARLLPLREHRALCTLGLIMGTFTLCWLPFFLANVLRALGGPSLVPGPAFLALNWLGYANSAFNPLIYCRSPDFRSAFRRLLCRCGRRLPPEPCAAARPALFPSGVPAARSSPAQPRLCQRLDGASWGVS
Experiment [3] has as its target T1, Beta-3 adrenergic receptor. Kind of experiment: Intrinsic activity (IA) at human Beta-3 adrenergic receptor (represented by the percentage of the maximal response attained by isoproterenol). It counts as functional.
Target sequence in this assay (P13945 whole entry, looked up): as the sequence (P13945 whole entry) above
Experiment [4] concerns the target Beta-2 adrenergic receptor (Homo sapiens) (UniProt P07550). Description: Intrinsic activity (IA) human Beta-2 adrenergic receptor (at 30 uM, represent by the percentage of the maximal response attained by isoproterenol). It counts as functional.
The target of experiment [5] is Beta-1 adrenergic receptor (Homo sapiens) (UniProt P08588). Description: Intrinsic activity (IA) of 30 uM compound at human Beta-1 adrenergic receptor represent the percentage of the maximal response attained by isoproterenol.

Sequence of Beta-2 adrenergic receptor (Homo sapiens) (P07550 whole entry, looked up): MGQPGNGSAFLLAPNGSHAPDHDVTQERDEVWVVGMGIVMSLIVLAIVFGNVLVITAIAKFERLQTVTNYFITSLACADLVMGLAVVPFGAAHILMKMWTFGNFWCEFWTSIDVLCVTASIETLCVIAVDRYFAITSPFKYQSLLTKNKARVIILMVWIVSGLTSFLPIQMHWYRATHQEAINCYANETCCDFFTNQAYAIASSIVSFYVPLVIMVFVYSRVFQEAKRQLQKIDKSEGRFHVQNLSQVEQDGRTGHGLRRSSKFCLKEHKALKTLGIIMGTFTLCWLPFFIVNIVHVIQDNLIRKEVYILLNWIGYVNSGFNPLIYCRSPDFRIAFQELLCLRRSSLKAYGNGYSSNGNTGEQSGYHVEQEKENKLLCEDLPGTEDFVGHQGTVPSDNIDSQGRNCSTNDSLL
Sequence of Beta-1 adrenergic receptor (Homo sapiens) (P08588 whole entry, looked up): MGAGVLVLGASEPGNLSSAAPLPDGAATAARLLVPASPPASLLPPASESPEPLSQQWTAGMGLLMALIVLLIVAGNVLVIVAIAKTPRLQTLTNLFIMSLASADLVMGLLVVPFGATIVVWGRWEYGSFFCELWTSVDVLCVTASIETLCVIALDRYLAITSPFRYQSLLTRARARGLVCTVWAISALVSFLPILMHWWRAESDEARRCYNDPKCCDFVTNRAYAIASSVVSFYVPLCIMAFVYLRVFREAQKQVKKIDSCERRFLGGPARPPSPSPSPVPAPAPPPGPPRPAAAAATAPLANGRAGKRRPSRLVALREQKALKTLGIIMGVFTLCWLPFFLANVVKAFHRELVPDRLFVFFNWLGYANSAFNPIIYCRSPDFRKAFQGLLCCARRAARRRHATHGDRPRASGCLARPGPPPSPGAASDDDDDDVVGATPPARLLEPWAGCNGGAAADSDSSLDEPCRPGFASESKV

Consider `CN(C)S(=O)(=O)N(C)c1ccc(CCNC[C@H](O)c2cccc(Cl)c2)cc1`, for which the IA in experiment [1] is 2; in experiment [3], 105; in experiment [4], 1. Also, the pEC50 in experiment [2] is 5.00.
Taken in the same sequence, the figures for `O=S(=O)(Nc1ccc(CCNC[C@H](O)c2cccc(Cl)c2)cc1)N1CCCCC1` were 4, 84, 5 and 6.21.
In the case of `CN(C1CCCCC1)S(=O)(=O)Nc1ccc(CCNC[C@H](O)c2cccnc2)cc1`, the IA in experiment [1] came to 15; in experiment [3], 67; in experiment [4] it was 16. In experiment [2], this molecule had a pEC50 of 6.74.
Turning to `O=S(=O)(Nc1ccc(CCNC[C@H](O)c2cccnc2)cc1)NC1CCCCC1`, the IA in experiment [1] is 0; in experiment [3], 71; in experiment [4] it was 0. This molecule had a pEC50 in experiment [2] of 5.84.
For `CN(C)S(=O)(=O)Nc1ccc(CCNC[C@H](O)c2cccc(Cl)c2)cc1`, the values for the IA in experiment [1], in experiment [3] and in experiment [4] were 5, 75 and 6, respectively. In experiment [2], this molecule showed a pEC50 of 6.52.
`O=S(=O)(Nc1ccc(CCNC[C@H](O)c2cccc(Cl)c2)cc1)NC1CCCCC1`: the pEC50 in experiment [2] is 6.33. Also, the IA came out at 63 in experiment [3], 7 in experiment [4] and 10 in experiment [5].
Take `CC(C)(Cc1ccc(NS(=O)(=O)Nc2ccccc2)cc1)NC[C@H](O)c1cccnc1`: the IA was found to be 29 in experiment [1], 107 in experiment [3] and 8 in experiment [4]. In experiment [2], the pEC50 is 8.15.
Turning to `CN(C)S(=O)(=O)Nc1ccc(OCCNC[C@H](O)c2cccnc2)cc1`, the IA is 3 in experiment [1], 96 in experiment [3] and 4 in experiment [4]. Moreover, in experiment [2], the pEC50 was 6.03.
Take `O=S(=O)(Nc1ccc(CCNC[C@H](O)c2cccnc2)cc1)c1ccc(-c2nc(-c3ccc(C(F)(F)F)cc3)cs2)cc1`: the values for the IA in experiment [1], in experiment [3] and in experiment [4] were 1, 92 and 1, respectively.
Regarding `CC1CCN(S(=O)(=O)Nc2ccc(CCNC[C@H](O)c3cccnc3)cc2)CC1`, the IA in experiment [1] turned out to be 6; in experiment [3], 80; in experiment [4], 8. For the same molecule, the pEC50 in experiment [2] was 7.44.
On the same counts, the results for `CC(C)(Cc1ccc(NS(=O)(=O)NC2CCCCC2)cc1)NC[C@H](O)c1cccnc1` are 17, 110, 19 and 7.60.
Taken in the same sequence, the figures for `CN(C)S(=O)(=O)Nc1ccc(CC(C)(C)NC[C@H](O)c2cccnc2)cc1` were 10, 98, 7 and 7.42.
Taken in the same sequence, the figures for `C[C@@H]1CN(S(=O)(=O)Nc2ccc(CC(C)(C)NC[C@H](O)c3cccnc3)cc2)C[C@H](C)O1` were 10, 85, 8 and 8.10.
Take `O=S(=O)(Nc1ccc(CCNC[C@H](O)c2cccnc2)cc1)N1CCC(c2ccccc2)CC1`: the IA worked out at 2 in experiment [1], 100 in experiment [3] and 2 in experiment [4]. Moreover, the pEC50 in experiment [2] is 7.64.
On to `COCCNS(=O)(=O)Nc1ccc(CC(C)(C)NC[C@H](O)c2cccnc2)cc1`, for which the IA in experiment [1] came to 28; in experiment [3], 103; in experiment [4] it was 24. Further, the pEC50 in experiment [2] was 6.78.
`CC(C)(Cc1ccc(NS(=O)(=O)N2CCN(Cc3ccccc3)CC2)cc1)NC[C@H](O)c1cccnc1`: the values for the IA in experiment [1], in experiment [3] and in experiment [4] were 46, 105 and 13, respectively. The pEC50 in experiment [2] was 7.74.
On the same counts, the results for `C[C@@H]1C[C@H](C)CN(S(=O)(=O)Nc2ccc(CC(C)(C)NC[C@H](O)c3cccnc3)cc2)C1` are 7, 89, 11 and 8.40.
Taken in the same sequence, the figures for `O=S(=O)(Nc1ccc(CCNC[C@H](O)c2cccnc2)cc1)N1CCCCC1` were 7, 77, 6 and 7.00.
On the same counts, the results for `CN(C)S(=O)(=O)Nc1ccc(CCNC[C@H](O)c2cccnc2)cc1` are 6, 84, 11 and 6.58.
As for `C[C@@H]1C[C@H](C)CN(S(=O)(=O)Nc2ccc(CCNC[C@H](O)c3cccnc3)cc2)C1`, the IA in experiment [1] was determined as 11; in experiment [3], 95; in experiment [4], 17. The pEC50 in experiment [2] was 7.62.
Taken in the same sequence, the figures for `CN1CCN(S(=O)(=O)Nc2ccc(CC(C)(C)NC[C@H](O)c3cccnc3)cc2)CC1` were 7, 79, 4 and 7.39.
On the same counts, the results for `CC1CCN(S(=O)(=O)Nc2ccc(CC(C)(C)NC[C@H](O)c3cccnc3)cc2)CC1` are 12, 91, 6 and 8.00.
Taken in the same sequence, the figures for `CC(C)(Cc1ccc(NS(=O)(=O)N2CCC(c3ccccc3)CC2)cc1)NC[C@H](O)c1cccnc1` were 20, 106, 9 and 7.33.
With `CN(C1CCCCC1)S(=O)(=O)Nc1ccc(CCNC[C@H](O)c2cccc(Cl)c2)cc1`, the IA in experiment [1] was 6; in experiment [3] it was 62; in experiment [4] it was 5. This molecule had a pEC50 in experiment [2] of 6.27.
Taken in the same sequence, the figures for `CC1CCN(S(=O)(=O)Nc2ccc(OCCNC[C@H](O)c3cccnc3)cc2)CC1` were 5, 98, 7 and 5.87.

Usually pEC50 stands for the EC50 on a negative log10 scale, so that one unit is a factor of ten. Read a low pEC50 as a large EC50.
